Literature values as cited in patent EP1131101B1, “KHELLIN PREPARATION AND THE USE THEREOF FOR TOPICAL THERAPY” (priority 1998, dated 2000).

What was measured:
[1] = animal experiments; UVA phototherapy with Khellin compared with photochemotherapy with 8-MOP
Plaque-Psoriasis = settings: oral 100 mg Khellin then sun exposure

## COc1c2occc2c(OC)c2c(=O)cc(C)oc12 [Khellin, 4,9-Dimethoxy-7-methyl-5H-furo[3,2-g][1] benzopyran-5-on]
Grünalgen
  Mutagenität: keine signifikante Mutagenität
[1]
  karzinogenes Risiko: deutlich geringeres karzinogenes Risiko
Plaque-Psoriasis; 10 patients with plaque psoriasis
  auf die Behandlung ansprachen: 80%
Plaque-Psoriasis; of the responding patients
  für drei Jahre symptomfrei: 6 von 8
Bakterien
  Photomutagenität: nur eine geringe Photomutagenität
